# Source: patent US20240122865A1, “Methods of Protecting RNA” (Pfizer Inc., priority 2021, published 2024)
# What was measured:
# Format in all cases: biochemical, Trichoderma atroviride
# Chi18 model RNA [1] = assay: TapeStation Assay, Chi18 model RNA; set-up: Conc. chi18#1 / Conc. chi18#2: unit not given here; conditions: for % Control N = 1 / % Control N = 2 / % Control Avg.: Chi18 RNA, 20 mM amino acids, 50 mM CAPS pH 11, 50° C. 15 min; for % Control N = 1 / % Control N = 2: vs Time 0; for % Control Avg.: vs Time 0, Avg N=2; for Conc. chi18#1 / Conc. chi18#2: intact Chi18 RNA after 15 min at 50° C.; for Conc. chi18#1: 20 mM amino acids in 50 mM CAPS pH 11, run #1; for Conc. chi18#2: 20 mM amino acids in 50 mM CAPS pH 11, run #2
# Method: (§1) These assays were performed with amino acids and compared to a no-degradation baseline control to gauge degree of protection imparted by the amino acid. Multiple functional assay approaches were used where differing endpoints were measured including a droplet digital PCR (ddPCR) assay where intact RNA sequence was quantitated, a size exclusion base hydrolysis degradation assay that used a size exclusion column to determine the degree of degradation occurring to an mRNA construct, and finally, a TapeStation assay that utilizes capillary electrophoresis and optical detection to measure intact RNA. […] Affinity selection by mass spectrometry (ASMS), native electrospray ionization mass spectrometry (nESI-MS) and nuclear magnetic resonance (NMR) may be used as several complementary approaches to ascertain compound binding to RNA. The latter techniques utilize MS to measure mass of bound compound alone (ASMS), or mass of RNA and bound compound (nESI-MS). The nESI-MS and NMR studies may be conducted to provide direct analytical quantification of resulting complex via measurement of mass (nESI-MS) or chemical shifts (NMR). The ASMS experiment is conducted to determine saturation binding of the compound to RNA where resulting apparent binding constants (KD,App) may be generated. Further descriptions of the functional and binding assays are provided in the section below.
# (§2) In principle, samples are loaded to the instrument where electrophoresis separates component RNA's on the basis of mass, and subsequently analyzes these optically as they travel through the capillary.
# (§3) RNA samples were diluted to the appropriate concentration to fall within the linear range of detection for the RNA ScreenTape Assay. Model Chi18 or FgenL RNAs were diluted to 50 ng/μL in 50 mM CAPS buffer pH 11. Amino acid stocks were made up in 50 mM CAPS pH 11 and re-adjusted to >pH 11 after solubilization. […] The samples were aliquoted to PCR tubes for each time point (Time 0 or 15 minutes). Degradation reaction: Samples were incubated at 50° C. for 0 to 15 minutes in a thermocycler, removed at the appropriate time point and placed on ice. Time 0 samples remained on ice.
# FgenL mRNA construct = assay: Size Exclusion Base Hydrolysis Degradation Assay, FgenL; conditions: 25 mM amino acid; for T0 R1 peak area at 250 nm: FgenL 0.1 mg/mL, 50 mM CAPS, T=0, replicate 1; for T2 Avg, peak area as percentage of T=0 / T2 R1 peak area at 250 nm / T10 Avg, peak area as percentage of T=0 / T10 R1 peak area at 250 nm / T24 Avg, peak area as percentage of T=0 / T24 R1 peak area at 250 nm / T0 Avg, peak area as percentage of T=0: FgenL; for T2 Avg, peak area as percentage of T=0 / T2 R1 peak area at 250 nm / T10 Avg, peak area as percentage of T=0 / T10 R1 peak area at 250 nm / T24 Avg, peak area as percentage of T=0 / T24 R1 peak area at 250 nm: 50 mM CAPS pH 11, room temperature; for T2 Avg, peak area as percentage of T=0 / T2 R1 peak area at 250 nm: 2 hrs; for T2 R1 peak area at 250 nm / T10 R1 peak area at 250 nm / T24 R1 peak area at 250 nm: replicate 1; for T10 Avg, peak area as percentage of T=0 / T10 R1 peak area at 250 nm: 10 hrs; for T24 Avg, peak area as percentage of T=0 / T24 R1 peak area at 250 nm: 24 hrs; for T0 Avg, peak area as percentage of T=0: T=0 (reference)
# Method: Basic assay procedure: RNA samples were diluted to 1.0 mg/mL in DNAase/RNAase free water. Amino acids were dissolved in water to a stock solution of 100 mM and a solution of 500 mM CAPS pH 11 was used. The two mRNA constructs tested were FgenL and Chi18. Each individual sample volume was 50 μL. To determine the amount of 1 M NaOH needed to adjust the final pH to 11.0 after the addition of all sample components, the sample volume was increased 100 fold (5 mL), the volume of 1 M NaOH recorded and this value was translated back down to the 50 μL sample volume.
# The mRNA and amino acid were allowed to incubate for one hour prior to the addition of CAPS pH 11. All steps of the assay were conducted at room temperature.
# Degradation reaction: After the CAPS addition, the samples were injected onto the Waters H-Class UPLC system to record the first timepoint, T=O. This resulting chromatogram was processed by integrating the area of absorbance at 250 nm for the mRNA construct. Immediately following this timepoint, the pH was adjusted to 11. Subsequent time points (2 hrs, 10 hrs, and 24 hrs) recorded the Absorbance Units (peak area) at 250 nm as a percentage of the peak area determined at T=O. Integration of the chromatogram for subsequent timepoints was conducted by analyzing the area of absorbance at 250 nm contained within the same time window in which the peak eluted in T=0 for the 100% intact mRNA.
# Chi18 model RNA [2] = assay: Droplet Digital Polymerase Chain Reaction (ddPCR) Assay, Chi18; conditions: percent protection, pH 11.0, 30° C., 16 hours, n = 2
# Method: The ddPCR assays measure RNA integrity by converting intact RNA to cDNA by reverse transcription, then performing digital PCR in thousands of nanoliter-sized droplets for each sample. PCR is performed within each droplet, which allows for more sensitive detection of subtle changes in RNA concentration compared to traditional PCR or qPCR. Additionally, primers/probes specific to the 5′ end of the RNA/cDNA transcript(s) are used to assess fragment integrity—e.g. degraded RNA will have fewer 5′ positive droplets. The BioRad QX200 Droplet Digital PCR System was used for the ddPCR workflow.
# Basic assay procedure: RNA samples (Chi18 or FgenL fragments) were diluted to 25 fg/μL or 10 fg/μL, respectively, in 50 mM […] buffer pH 11.0. Amino acid stocks were made up in 50 mM CAPS buffer, pH 11.0 and subsequently re-adjusted to pH 11.0, post solubilization. Amino acid stocks were tested in a dose-response format to determine EC50. An amino acid dilution plate containing a ˜300 mM (or appropriate) top-concentration of amino acid in 50 mM CAPS buffer was serially (half-log) diluted for 10 times. 0.6 μL of this compound dilution plate was spotted into a 96-well PCR plate (Thermo). Sample RNAs were added (6 μL) and incubated with test amino acid as described below.
# Degradation reaction: Treated RNAs were incubated for 16 hours at 30° C. for Chi18 samples or 44° C. for FgenL samples. Upon completion of the degradation reaction, cDNA was made from the intact RNA by Reverse Transcription and ddPCR run for each sample (96 well plates). Positive 5′ droplet values were divided by the total accepted droplet values for each sample and a ratio value generated for each sample.
# EC50 was determined by using a four parameter logistic equation: Y=A+((B−A)/(1+(C/X)D)); where Y is percent protection, X is compound concentration, A and B are minimum and maximum asymptotes, respectively, C is EC50, and D is Hill slope.
# FgenL model RNA = assay: TapeStation Assay, FgenL model RNA; set-up: Conc. FgenL#1 / Conc. FgenL#2: unit not given here; conditions: for % Control N = 1 / % Control N = 2 / % Control Average: FgenL RNA, 20 mM amino acids, 50 mM CAPS pH 11, 50° C. 15 min; for % Control N = 1 / % Control N = 2: vs Time 0; for % Control Average: vs Time 0, Avg N=2; for Conc. FgenL#1 / Conc. FgenL#2: intact FgenL RNA after 15 min at 50° C.; for Conc. FgenL#1: 20 mM amino acids in 50 mM CAPS pH 11, run #1; for Conc. FgenL#2: 20 mM amino acids in 50 mM CAPS pH 11, run #2
# Method: as §1, §2, §3
SMILES,% Control N = 1 (Chi18 model RNA [1]) [%],% Control N = 2 (Chi18 model RNA [1]) [%],% Control Avg. (Chi18 model RNA [1]) [%],Conc. chi18#1 (Chi18 model RNA [1]),Conc. chi18#2 (Chi18 model RNA [1]),T0 R1 peak area at 250 nm (FgenL mRNA construct),"T2 Avg, peak area as percentage of T=0 (FgenL mRNA construct) [%]",T2 R1 peak area at 250 nm (FgenL mRNA construct),"T10 Avg, peak area as percentage of T=0 (FgenL mRNA construct) [%]",T10 R1 peak area at 250 nm (FgenL mRNA construct),"T24 Avg, peak area as percentage of T=0 (FgenL mRNA construct) [%]",T24 R1 peak area at 250 nm (FgenL mRNA construct),"T0 Avg, peak area as percentage of T=0 (FgenL mRNA construct) [%]",EC50 (Chi18 model RNA [2]) [mM],% Control N = 1 (FgenL model RNA) [%],% Control N = 2 (FgenL model RNA) [%],% Control Average (FgenL model RNA) [%],Conc. FgenL#1 (FgenL model RNA),Conc. FgenL#2 (FgenL model RNA)
NC(=O)CC[C@H](N)C(=O)O [Glutamine],15.9,17.8,16.8,8.46,9.42,15510,25.9,5779,0.0,0,0.0,0,100.0,8.8,29.0,10.3,19.6,10,3.57
N[C@@H](CCC(=O)N[C@@H](CS)C(=O)NCC(=O)O)C(=O)O [Glutathione],29.3,26.7,28.0,15.6,14.1,16850,37.7,4627,2.3,0,0.0,0,100.0,> 30,42.9,35.7,39.3,14.8,12.4
NCC(=O)O [Glycine],42.0,51.4,46.7,22.4,27.2,18897,29.3,3657,0.0,0,0.0,0,100.0,15,39.4,37.2,38.3,13.6,12.9
